From ChEMBL document CHEMBL3885861, “Open TG-GATES”

Organism: Rattus norvegicus
Test: Open TG-GATES - Regimen: Single
Format: toxicity, organism-based, Sprague-Dawley
Parameters: regimen Single, gender Male, age 6 weeks
Conditions: in vivo, po, 300 mg/kg, route gavage, dose level Middle; for APTT / Bas / Eos / Fbg / Hb / Ht / Lym / MCH / MCHC / MCV / Mono / Neu / PT / Plat / RBC / Ret / WBC: tissue Blood; for KIDNEY_L / KIDNEY_R / KIDNEY_TOTAL: tissue Kidney; for LIVER: tissue Liver; for A/G / ALP / ALT / AST / BUN / CRE / Ca / Cl / DBIL / GLC / IP / K / LDH / Na / PL / RALB / TBIL / TC / TG / TP / gamma-GTP: tissue Plasma

CCCCNC(=O)NS(=O)(=O)c1ccc(C)cc1 [TOLBUTAMIDE]
TERMINAL_BW (3 h): 202.7 g | APTT (3 h): 16.1 s | Bas (3 h): 0% | Eos (3 h): 1% | Fbg (3 h): 308.4 mg/dL | Hb (3 h): 13.7 g/dL | Ht (3 h): 42.4% | Lym (3 h): 75.2% | MCH (3 h): 20.5 pg | MCHC (3 h): 32.3% | MCV (3 h): 63.5 fL | Mono (3 h): 3% | Neu (3 h): 20.4% | PT (3 h): 12.9 s | Plat (3 h): 121.4 x10_4/uL | RBC (3 h): 667.6 x10_4/ul | Ret (3 h): 9% | WBC (3 h): 75.7 x10_2/uL | KIDNEY_L (3 h): 0.9 g | KIDNEY_R (3 h): 0.9 g | KIDNEY_TOTAL (3 h): 1.8 g | LIVER (3 h): 8.8 g | A/G (3 h): 0.9 | ALP (3 h): 1501.4 IU/L | ALT (3 h): 42 IU/L | AST (3 h): 75 IU/L | BUN (3 h): 11.2 mg/dL | CRE (3 h): 0.2 mg/dL | Ca (3 h): 10.8 mg/dL | Cl (3 h): 107 meq/L | DBIL (3 h): 0.008 mg/dL | GLC (3 h): 148 mg/dL | IP (3 h): 8.4 mg/dL | K (3 h): 4.1 meq/L | LDH (3 h): 59.6 IU/L | Na (3 h): 141 meq/L | PL (3 h): 135.6 mg/dL | RALB (3 h): 2.6 g/dL | TBIL (3 h): 0.052 mg/dL | TC (3 h): 76.6 mg/dL | TG (3 h): 71.8 mg/dL | TP (3 h): 5.5 g/dL | gamma-GTP (3 h): 1 IU/L | TERMINAL_BW (6 h): 203.4 g | APTT (6 h): 17.5 s | Bas (6 h): 0.2% | Eos (6 h): 1% | Fbg (6 h): 295 mg/dL | Hb (6 h): 13.9 g/dL | Ht (6 h): 42.5% | Lym (6 h): 75.8% | MCH (6 h): 21.4 pg | MCHC (6 h): 32.7% | MCV (6 h): 65.5 fL | Mono (6 h): 2.6% | Neu (6 h): 20.4% | PT (6 h): 13.1 s | Plat (6 h): 119.3 x10_4/uL | RBC (6 h): 650 x10_4/ul | Ret (6 h): 9% | WBC (6 h): 68.2 x10_2/uL | KIDNEY_L (6 h): 0.9 g | KIDNEY_R (6 h): 0.9 g | KIDNEY_TOTAL (6 h): 1.8 g | LIVER (6 h): 8.5 g | A/G (6 h): 0.9 | ALP (6 h): 1415.4 IU/L | ALT (6 h): 47.2 IU/L | AST (6 h): 81.8 IU/L | BUN (6 h): 11.6 mg/dL | CRE (6 h): 0.2 mg/dL | Ca (6 h): 11 mg/dL | Cl (6 h): 106.6 meq/L | DBIL (6 h): 0.006 mg/dL | GLC (6 h): 134.8 mg/dL | IP (6 h): 9.5 mg/dL | K (6 h): 3.8 meq/L | LDH (6 h): 54 IU/L | Na (6 h): 141.4 meq/L | PL (6 h): 126.6 mg/dL | RALB (6 h): 2.6 g/dL | TBIL (6 h): 0.058 mg/dL | TC (6 h): 66.6 mg/dL | TG (6 h): 59.2 mg/dL | TP (6 h): 5.4 g/dL | gamma-GTP (6 h): 1.2 IU/L | TERMINAL_BW (9 h): 200 g | APTT (9 h): 17.4 s | Bas (9 h): 0% | Eos (9 h): 1.2% | Fbg (9 h): 324 mg/dL | Hb (9 h): 13.7 g/dL | Ht (9 h): 41.4% | Lym (9 h): 69% | MCH (9 h): 20.7 pg | MCHC (9 h): 32.9% | MCV (9 h): 62.9 fL | Mono (9 h): 2.4% | Neu (9 h): 27% | PT (9 h): 13.4 s | Plat (9 h): 129.6 x10_4/uL | RBC (9 h): 659 x10_4/ul | Ret (9 h): 8.8% | WBC (9 h): 81.6 x10_2/uL | KIDNEY_L (9 h): 0.9 g | KIDNEY_R (9 h): 0.9 g | KIDNEY_TOTAL (9 h): 1.8 g | LIVER (9 h): 7.9 g | A/G (9 h): 0.9 | ALP (9 h): 1449.6 IU/L | ALT (9 h): 40.4 IU/L | AST (9 h): 71.8 IU/L | BUN (9 h): 9.6 mg/dL | CRE (9 h): 0.2 mg/dL | Ca (9 h): 10.8 mg/dL | Cl (9 h): 106.4 meq/L | DBIL (9 h): 0.004 mg/dL | GLC (9 h): 136.6 mg/dL | IP (9 h): 9.9 mg/dL | K (9 h): 4 meq/L | LDH (9 h): 62 IU/L | Na (9 h): 142 meq/L | PL (9 h): 127.2 mg/dL | RALB (9 h): 2.6 g/dL | TBIL (9 h): 0.064 mg/dL | TC (9 h): 69.4 mg/dL | TG (9 h): 41.6 mg/dL | TP (9 h): 5.4 g/dL | gamma-GTP (9 h): 1 IU/L | TERMINAL_BW (24 h): 218.5 g | APTT (24 h): 16.4 s | Bas (24 h): 0.2% | Eos (24 h): 1% | Fbg (24 h): 314.2 mg/dL | Hb (24 h): 13.3 g/dL | Ht (24 h): 40.4% | Lym (24 h): 76.6% | MCH (24 h): 20.9 pg | MCHC (24 h): 33% | MCV (24 h): 63.5 fL | Mono (24 h): 3.6% | Neu (24 h): 18% | PT (24 h): 12.9 s | Plat (24 h): 125 x10_4/uL | RBC (24 h): 636.8 x10_4/ul | Ret (24 h): 8% | WBC (24 h): 102.5 x10_2/uL | KIDNEY_L (24 h): 0.9 g | KIDNEY_R (24 h): 0.9 g | KIDNEY_TOTAL (24 h): 1.9 g | LIVER (24 h): 10.3 g | A/G (24 h): 0.9 | ALP (24 h): 1549.2 IU/L | ALT (24 h): 45 IU/L | AST (24 h): 72.2 IU/L | BUN (24 h): 14.2 mg/dL | CRE (24 h): 0.2 mg/dL | Ca (24 h): 11.1 mg/dL | Cl (24 h): 105 meq/L | DBIL (24 h): 0.008 mg/dL | GLC (24 h): 180.2 mg/dL | IP (24 h): 8.5 mg/dL | K (24 h): 4 meq/L | LDH (24 h): 83 IU/L | Na (24 h): 141.2 meq/L | PL (24 h): 150.2 mg/dL | RALB (24 h): 2.5 g/dL | TBIL (24 h): 0.062 mg/dL | TC (24 h): 81.8 mg/dL | TG (24 h): 85 mg/dL | TP (24 h): 5.4 g/dL | gamma-GTP (24 h): 1 IU/L
